This is an account of results in patent US20240327418A1, “MULTI-TARGET INHIBITOR TARGETING HDAC AND NAD SYNTHESIS AND USE OF MULTI-TARGET INHIBITOR” (OCEAN UNIVERSITY OF CHINA, priority 2021, published 2024).

Data set [1] concerns leukemia cell line MONO-MAC-1. In words: GI50 and LC50 by NCI method, MONO-MAC-1. The class given is cell-based. The note with it: 48 hours, Cell Titer-Blue. Here is the method: (§1) The median growth inhibitory concentration (GI50) and median lethal concentration (LC50) were determined by NCI method. Leukemia cell strains MV4-11, HL60, PL21, KASUMI-1, MONO-MAC-1 and NB-4 were cultured in an Iscove's Modified Dulbecco Medium (IMDM) containing 10% fetal bovine serum, were inoculated into a 96-well cell culture plate at a density of 10,000 cells/100 μL and cultured overnight. 6 wells were selected as Tz wells, 0.125 mg/mL Cell Titer-Blue dye was added, and the cells were cultured for 4 hours and then the fluorescence intensity at […] (excitation wavelength/emission wavelength) was read. Compounds of different concentrations were added to the remaining wells, and a 100% control group was set. After 48 hours of cultivation, 0.125 mg/mL Cell Titer-Blue dye was added and the fluorescence intensity at […] was read after 4 hours. The fluorescence intensity of the dosing group was represented by Ti, the fluorescence intensity of the 100% control group was represented by C, and the fluorescence intensity before dosing was represented by Tz.
(§2) If Ti≥Tz, the formula [(Ti−Tz)/(C−Tz)]×100 was used.
(§3) If Ti<Tz, the formula [(Ti−Tz)/Tz]×100 was used.
(§4) The GI50 and LC50 values of some compounds on leukemia cell strains MV4-11, HL60, PL21, KASUMI-1, MONO-MAC-1 and NB-4 are shown in FIG. 1, Table 3, FIG. 2, and Table 4.
(Alamar Blue is a resazurin reagent that responds to reducing activity.)

In the next data set the test system is leukemia cell line NB-4. In words: GI50 and LC50 by NCI method, NB-4. It counts as cell-based. The following applies: 48 hours, Cell Titer-Blue; for GI50: read-out: NB4 GI50; for LC50 (median lethal concentration): read-out: NB4 LC50. As to the method:
as §1, §2, §3, §4

In data set [2] the test system is acute myelogenous leukemia cells HL60. In words: GI50 and LC50 by NCI method, HL60. The class given is cell-based. The note with it: for CC50 / GI50: Homo sapiens, HL-60, 48 hours, Cell Titer-Blue. Here is the method:
as §1, §2, §3, §4

Another data set concerns the target HDAC2 (Homo sapiens (Human), UniProt Q92769). Briefly: Inhibitory activity on HDAC2 (fluorescence enzyme assay). The note with it: read-out: IC50 HDAC2; mean of three independent experiments.
The subject of another data set is leukemia cell line PL21. Briefly: GI50 and LC50 by NCI method, PL21. It counts as cell-based. The following applies: PL-21; 48 hours, Cell Titer-Blue. Here is the method:
as §1, §2, §3, §4

Another data set addresses HDAC1 (Homo sapiens (Human), UniProt Q13547). In words: Inhibitory activity on HDAC1 (fluorescence enzyme assay). The following applies: read-out: IC50 HDAC1; mean of three independent experiments.
The next data set addresses NAMPT (Homo sapiens (Human), UniProt P43490). In words: Inhibitory activity on NAMPT. The class given is biochemical. The following applies: for IC50: mean of three independent experiments.
In data set [3] the test system is acute myelogenous leukemia cells MV4-11. In words: GI50 and LC50 by NCI method, MV4-11. The note with it: Homo sapiens, 48 hours, Cell Titer-Blue. The class given is cell-based. Here is the method: as §1, §2, §3, §4
Data set [4] has as its system leukemia cell line KASUMI-1. In words: GI50 and LC50 by NCI method, KASUMI-1. It counts as cell-based. The note with it: Homo sapiens, 48 hours, Cell Titer-Blue. As to the method:
as §1, §2, §3, §4

A further data set deals with cell death. In words: NMN reversal of cell death caused by compounds (FIG. 4). It counts as cell-based. The note with it: NMN is nicotinamide mononucleotide.
A further data set concerns the target HDAC3 (Homo sapiens (Human), UniProt O15379). Briefly: Inhibitory activity on HDAC3 (fluorescence enzyme assay). The note with it: read-out: IC50 HDAC3; mean of three independent experiments.
Data set [5] can be described thus: Pharmacokinetic properties in mice. It counts as in vivo. The following applies: for F: po 20 mg/kg vs iv 5 mg/kg; for half-life: read-out: t½ (converted).
Another data set relates to MV4-11 tumor. Briefly: In vivo anti-leukemia activity, MV4-11 tumor bearing model. The note with it: MV4-11 tumor bearing nude mice; 4 mg/kg/d, day 23; panobinostat intraperitoneal.
A further data set has as its system HCT116 tumor. In words: In vivo anti-colon cancer activity, HCT116 tumor bearing model. Also on record: species or system nude mice.
For data set [6] the following is noted: po 50 mg/kg, literature (BMC 2007, 21, 184-189); cited from earlier work.
Setting [7] is: mouse, plasma, po 20 mg/kg single dose.
[8] abbreviates: mouse, plasma, po 20 mg/kg single dose, read-out: Cmax.
[9] abbreviates: HCT116 tumor bearing nude mice, LEE17 orally 8 mg/kg/d.

Read-outs that look alike come from different tables or passages of the source.

Chain of NAMPT (P43490 whole entry, species assumed): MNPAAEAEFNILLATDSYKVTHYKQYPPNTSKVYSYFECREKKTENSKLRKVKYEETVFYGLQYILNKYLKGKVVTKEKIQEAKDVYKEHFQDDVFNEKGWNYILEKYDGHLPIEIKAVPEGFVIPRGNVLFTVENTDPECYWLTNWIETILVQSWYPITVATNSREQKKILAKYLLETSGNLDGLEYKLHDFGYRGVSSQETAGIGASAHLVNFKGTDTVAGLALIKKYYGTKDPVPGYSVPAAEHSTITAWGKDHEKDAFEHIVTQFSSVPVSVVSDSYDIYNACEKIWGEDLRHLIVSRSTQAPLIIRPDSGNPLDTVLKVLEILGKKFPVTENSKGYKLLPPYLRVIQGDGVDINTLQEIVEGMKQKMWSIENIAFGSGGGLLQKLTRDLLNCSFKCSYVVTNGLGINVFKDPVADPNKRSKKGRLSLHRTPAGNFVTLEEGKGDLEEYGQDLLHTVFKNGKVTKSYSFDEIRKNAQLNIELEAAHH
Chain of HDAC3 (O15379 whole entry, species assumed): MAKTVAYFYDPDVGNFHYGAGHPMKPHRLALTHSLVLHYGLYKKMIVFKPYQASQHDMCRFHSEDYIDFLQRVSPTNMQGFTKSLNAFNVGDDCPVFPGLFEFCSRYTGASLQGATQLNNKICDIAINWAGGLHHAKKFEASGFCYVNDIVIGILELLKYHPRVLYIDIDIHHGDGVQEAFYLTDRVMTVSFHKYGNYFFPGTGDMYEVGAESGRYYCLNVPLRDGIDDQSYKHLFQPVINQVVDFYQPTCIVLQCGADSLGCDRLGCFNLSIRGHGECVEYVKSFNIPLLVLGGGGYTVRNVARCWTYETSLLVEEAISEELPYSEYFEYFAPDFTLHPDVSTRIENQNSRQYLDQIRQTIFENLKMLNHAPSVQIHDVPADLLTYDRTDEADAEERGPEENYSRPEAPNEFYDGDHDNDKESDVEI
Chain of HDAC3 (Q9Y618 395-489 partner, species assumed): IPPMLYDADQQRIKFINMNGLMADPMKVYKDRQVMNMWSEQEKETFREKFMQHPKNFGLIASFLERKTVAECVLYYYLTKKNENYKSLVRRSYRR
Chain of HDAC1 (Q13547 whole entry, species assumed): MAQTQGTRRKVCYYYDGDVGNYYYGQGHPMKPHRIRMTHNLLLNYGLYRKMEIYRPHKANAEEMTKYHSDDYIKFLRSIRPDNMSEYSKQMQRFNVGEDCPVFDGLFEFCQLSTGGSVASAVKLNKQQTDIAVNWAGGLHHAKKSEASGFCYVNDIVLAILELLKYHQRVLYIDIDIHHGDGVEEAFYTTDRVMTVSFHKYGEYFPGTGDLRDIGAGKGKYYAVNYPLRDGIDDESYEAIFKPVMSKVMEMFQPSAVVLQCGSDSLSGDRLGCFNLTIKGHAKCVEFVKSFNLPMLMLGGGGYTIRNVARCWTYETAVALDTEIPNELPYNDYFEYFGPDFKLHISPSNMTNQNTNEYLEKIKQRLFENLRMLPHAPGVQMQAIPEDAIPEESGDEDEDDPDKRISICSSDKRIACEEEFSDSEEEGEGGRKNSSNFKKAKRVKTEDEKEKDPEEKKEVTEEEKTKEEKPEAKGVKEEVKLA
Chain of HDAC2 (Q92769 whole entry, species assumed): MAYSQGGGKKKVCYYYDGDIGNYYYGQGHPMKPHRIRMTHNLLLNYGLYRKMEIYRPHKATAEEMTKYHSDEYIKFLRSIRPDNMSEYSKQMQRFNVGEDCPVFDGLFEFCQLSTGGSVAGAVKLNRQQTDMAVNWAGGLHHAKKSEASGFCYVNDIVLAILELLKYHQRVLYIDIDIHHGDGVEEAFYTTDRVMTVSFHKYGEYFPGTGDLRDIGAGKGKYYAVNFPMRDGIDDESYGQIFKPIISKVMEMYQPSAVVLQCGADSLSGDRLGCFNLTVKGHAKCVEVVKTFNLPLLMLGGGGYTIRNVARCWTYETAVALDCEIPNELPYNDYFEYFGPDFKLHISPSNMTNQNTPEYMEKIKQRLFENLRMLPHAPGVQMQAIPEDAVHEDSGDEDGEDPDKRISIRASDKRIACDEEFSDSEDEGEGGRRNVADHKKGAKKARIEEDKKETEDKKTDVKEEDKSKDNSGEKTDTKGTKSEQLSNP

For `CCCNNC(=O)c1ccc(CNC(=O)/C=C/c2ccccc2)cc1` [Comparative example 1 LP411/3b, reference compound], the CC50 in data set [1] and in [2] was > 10 µM in each case. Besides, the GI50 (usually the concentration giving 50% growth inhibition) in [1] was determined as 16.3 nM; in the data set on leukemia cell line NB-4, 19.5 nM; in data set [2] it was 121 nM; with leukemia cell line PL21 it was 523 nM; in [3], 66 nM; in data set [4] it was 17.8 nM. Also, the figures for the half-maximal inhibitory concentration (IC50) on HDAC2, on HDAC1 and against NAMPT were 95.5 nM, 11.8 nM and > 20 µM, respectively.
As for `CCCNNC(=O)c1ccc(CNC(=O)/C=C/c2cccnc2)cc1` [LEE12, (E)-N-(4-(2-propylhydrazino-1-carbonyl)benzyl)-3-(pyridin-3-yl) acrylamide], the values for the CC50 in data set [1] and in [2] were 9.03 µM and 0.591 µM, respectively. Further, the GI50 turned out to be 73.7 nM in [1]; 22.8 nM in the data set on leukemia cell line NB-4; 42.1 nM in data set [2]; 259 nM in the data set on leukemia cell line PL21; 38.3 nM in [3]; 13.5 nM in data set [4]. Moreover, the LC50 (median lethal concentration) stood at 2300 nM in the data set with leukemia cell line NB-4, 3.82 µM in the data set on leukemia cell line PL21 and 218 nM in data set [3]. Moreover, the “LC50 values in p53-null cell strain HL60 (in words)” value in [2] is “nanomolar level”. For the same molecule, in the data set on cell death, the “effect of NMN on cell death caused by the compound” value is reported as “reversal effect”. Besides, the IC50 (in general, the concentration that gives 50% inhibition) on HDAC2 is 141 nM; at HDAC1, 25.1 nM; at HDAC3, 3.12 nM; against NAMPT it was 6.57 µM. Moreover, at NAMPT, the “inhibitory activity against NAMPT (in words)” value is recorded as “micromolar level”. Further, the LC50 (in general, the concentration that kills 50% of the test population) in data set [4] amounted to 0.285 µM.
On to `CCCNNC(=O)c1ccc(CNC(=O)c2cc3ccccc3[nH]2)cc1` [LEE15, N-(4-(2-propylhydrazino-1-carbonyl)benzyl)-1H-indole-2-carboxyamide], for which the CC50 in data set [1] and in data set [2] was > 10 µM in each case. For the same molecule, the GI50 in data set [1] came to 17.9 nM; in the data set on leukemia cell line NB-4, 31.9 nM; in data set [2], 69.5 nM; in the data set on leukemia cell line PL21, 65.5 nM; in data set [3] it was 37.2 nM; in data set [4] it was 17.5 nM. In addition, the LC50 (median lethal concentration) with leukemia cell line NB-4 was > 10000 nM; in the data set with leukemia cell line PL21, > 10 µM; in data set [3], 58.1 nM. The IC50 came to 15.1 nM on HDAC2, 3.52 nM at HDAC1 and 0.383 nM on HDAC3. Besides, the AUC(0-t) (usually the area under the concentration-time curve up to a stated or last time point) in [5] (setting [7]) came out at 128 µg·h/mL. The Tmax (commonly the time from dosing to the highest level) in [5] (setting [7]) was found to be 15 min. For the same molecule, the Cmax (commonly the highest concentration seen after dosing) in data set [5] (po 20 mg/kg single dose) stood at 38800 ng/mL. Also, the t½ – broadly, the time in which the quantity being followed falls by half – in data set [5] (po 20 mg/kg single dose) worked out at 2.58 h. The molecule further displayed a F in data set [5] of 112%. This molecule displayed an LC50 in data set [4] of 8.41 µM. In the data set on MV4-11 tumor, the “Relative tumor proliferation rate (T/C %)” value was determined as 22.4%. In addition, the “Tumor inhibitory rate (TGI %)” value in the data set with MV4-11 tumor is 81.3%.
For the molecule `CCCNNC(=O)c1ccc(CNC(=O)c2cc3ccccc3o2)cc1` [LEE16, N-(4-(2-propylhydrazino-1-carbonyl)benzyl)benzofuran-2-carboxyamide], the CC50 in data set [1] and in [2] was > 10 µM throughout. In addition, the GI50 turned out to be 25.3 nM in [1]; 42.3 nM in the data set on leukemia cell line NB-4; 75.2 nM in data set [2]; 34.3 nM in the data set with leukemia cell line PL21; 30 nM in data set [3]; 15.3 nM in data set [4]. Further, the LC50 (median lethal concentration) in the data set on leukemia cell line NB-4 was > 10000 nM; in the data set with leukemia cell line PL21, > 10 µM; in data set [3] it was 57.8 nM. In addition, the IC50 is 18.5 nM on HDAC2, 3.01 nM on HDAC1 and 0.435 nM on HDAC3. For the same molecule, the AUC(0-t) in [5] (setting [7]) stood at 129 µg·h/mL. Also, the Tmax in data set [5] (setting [7]) worked out at 30 min. The Cmax in data set [5] (setting [8]) worked out at 34400 ng/mL. Besides, the half-life in [5] (setting [7]) is 362 min. Besides, the F in [5] came to 111%. In addition, the LC50 in data set [4] is 5.36 µM. Also, the “Relative tumor proliferation rate (T/C %)” value with MV4-11 tumor worked out at 25.4%. The “Tumor inhibitory rate (TGI %)” value in the data set with MV4-11 tumor is listed as 78.4%.
Take `CCCNNC(=O)c1ccc(CNC(=O)c2cc3ccccc3s2)cc1` [LEE17, N-(4-(2-propylhydrazino-1-carbonyl)benzyl)benzo[b]thiophene-2-carboxyamide]: in data set [1], the CC50 – broadly, the concentration at which the toxic effect on the cells reaches its halfway point – was > 10 µM and it took 33.2 nM to inhibit growth by half (GI50). In addition, in the data set on leukemia cell line NB-4, the GI50 worked out at 51.2 nM and the LC50 (median lethal concentration) was > 10000 nM. Moreover, in the data set on HCT116 tumor (8 mg/kg/d), the “change in the weight of the nude mice at the end of the experiment (in words)” value is reported as “no significant change”. Besides, in the data set with HCT116 tumor (setting [9]), the “Relative tumor proliferation rate (T/C %)” value is 14.8%, the “Tumor inhibitory rate (TGI %)” value amounted to 85.5% and the “Weight of nude mice at the end of the experiment” value is 19.04 ± 1.31 g. Besides, in [2], the CC50 was > 10 µM and the GI50 came to 58.7 nM. Also, the 50% inhibitory concentration (IC50) at HDAC2 was determined as 16.9 nM. In addition, in the data set with leukemia cell line PL21, the GI50 worked out at 74.3 nM and the LC50 (median lethal concentration) was > 10 µM. Besides, the IC50 on HDAC1 came out at 3.79 nM. The IC50 at HDAC3 worked out at 0.551 nM. In data set [5] (setting [7]), the AUC(0-t) turned out to be 27.6 µg·h/mL, the Tmax amounted to 15 min and the half-life is 268 min. Also, in data set [5] (setting [8]), the Cmax is 9460 ng/mL. Also, the F in data set [5] is given as 64.6%. In data set [3], this molecule gave a GI50 of 20.3 nM and an LC50 (median lethal concentration) of 57.1 nM. Further, in data set [4], the GI50 is 25.3 nM and the LC50 came to 7.33 µM.
On to `CCCNNC(=O)c1ccc(CNC(=O)c2cc3cnccc3[nH]2)cc1` [LEE18, N-(4-(2-propylhydrazin-1-carbonyl)benzyl)-1H-pyrrolo[3,2-c]pyridin-2-carboxamide], for which the CC50 in data set [1] amounted to 8.68 µM; in data set [2], 0.649 µM. In addition, the 50% growth inhibitory concentration (GI50) worked out at 65.7 nM in data set [1]; 16.5 nM in the data set with leukemia cell line NB-4; 51.2 nM in [2]; 110 nM in the data set on leukemia cell line PL21; 23.6 nM in [3]; 21.4 nM in data set [4]. The values for the LC50 (median lethal concentration) (in the data set on leukemia cell line NB-4; with leukemia cell line PL21; in [3]) were 1560 nM, 2.72 µM and 58.1 nM, respectively. Besides, the “LC50 values in p53-null cell strain HL60 (in words)” value in data set [2] is “nanomolar level”. In the data set with cell death, the “effect of NMN on cell death caused by the compound” value is given as “reversal effect”. Moreover, the IC50 at HDAC2 was found to be 37.8 nM; at HDAC3, 0.71 nM. Further, the LC50 in [4] came out at 0.503 µM.
In the case of `Cc1[nH]c2ccccc2c1CCNCc1ccc(/C=C/C(=O)NO)cc1` [Panobinostat], in data set [6], the AUClast is 126 ng·h/mL, the Cmax is recorded as 116 ng/mL, the F is reported as 4.62% and the t½ is 2.9 h. In the data set with MV4-11 tumor, the “Relative tumor proliferation rate (T/C %)” value is on record as 72.9% and the “Tumor inhibitory rate (TGI %)” value is 18.3%.
